Test results as given in patent US20240101521A1, “DIAMINOTRIAZINE COMPOUNDS” (BASF SE, priority 2021, published 2024).

How the values were obtained:
Assay in all cases: greenhouse pre-emergence herbicidal test
Assay type in all cases: in vivo
Details in all cases: scale 0 to 100
[1] = test system: Abutilon theophrasti
Excerpt: (§1) The culture containers used were plastic flowerpots containing loamy sand with approximately 3.0% of humus as the substrate. The seeds of the test plants were sown separately for each species.
(§2) For the pre-emergence treatment, the active ingredients, which had been suspended or emulsified in water, were applied directly after sowing by means of finely distributing nozzles. The containers were irrigated gently to promote germination and growth and subsequently covered with transparent plastic hoods until the plants had rooted. This cover caused uniform germination of the test plants, unless this had been impaired by the active ingredients. For the post-emergence treatment, the test plants were first grown to a height of 3 to 15 cm, depending on the plant habit, and only then treated with the active ingredients which had been suspended or emulsified in water. For this purpose, the test plants were either sown directly and grown in the same containers, or they were first grown separately as seedlings and transplanted into the test containers a few days prior to treatment.
(§3) Depending on the species, the plants were kept at 10-25° C. or 20-35° C., respectively.
(§4) The test period extended over 2 to 4 weeks. During this time, the plants were tended, and their response to the individual treatments was evaluated.
(§5) Evaluation was carried out using a scale from 0 to 100. 100 means no emergence of the plants, or complete destruction of at least the aerial moieties, and 0 means no damage, or normal course of growth. A moderate herbicidal activity is given at values of at least 60, a good herbicidal activity is given at values of at least 70, and a very good herbicidal activity is given at values of at least 85.
(§6) The plants used in the greenhouse experiments were of the following species: […]

[2] = test system: Amaranthus retroflexus
Excerpt: as §1, §2, §3, §4, §5, §6

[3] = test system: Setaria faberi
Excerpt: as §1, §2, §3, §4, §5, §6

[4] = test system: Echinochloa crus-galli
Excerpt: as §1, §2, §3, §4, §5, §6

COc1c(C)cc(Br)c(F)c1Nc1nc(N)nc(C(C)(C)F)n1 [Example 51]
herbicidal activity ([1]; pre-emergence, 62 g/ha): 100%
herbicidal activity ([2]; pre-emergence, 62 g/ha): 100%
herbicidal activity ([3]; pre-emergence, 62 g/ha): 100%

COc1c(Cl)cc(F)c(F)c1Nc1nc(N)nc(C(C)(C)F)n1 [Example 7, N4-(5-Chloro-2,3-difluoro-6-methoxy-phenyl)-6-(1-fluoro-1-methyl-ethyl)-1,3,5-triazine-2,4-diamine]
herbicidal activity ([1]; pre-emergence, 125 g/ha): 100%
herbicidal activity ([4]; pre-emergence, 125 g/ha): 100%
herbicidal activity ([3]; pre-emergence, 125 g/ha): 100%

COc1c(Br)cc(F)c(F)c1Nc1nc(N)nc(C(C)(F)CCl)n1 (stereo not drawn) [Example 33]
herbicidal activity ([1]; pre-emergence, 62,5 g/ha): 100%
herbicidal activity ([2]; pre-emergence, 62,5 g/ha): 100%
herbicidal activity ([4]; pre-emergence, 62,5 g/ha): 98%

COc1c(Cl)cc(Cl)c(F)c1Nc1nc(N)nc(C(C)(C)F)n1 [Example 59]
herbicidal activity ([1]; pre-emergence, 62,5 g/ha): 100%
herbicidal activity ([4]; pre-emergence, 62,5 g/ha): 95%
herbicidal activity ([3]; pre-emergence, 62,5 g/ha): 100%

CC#CCOc1c(Cl)cc(F)c(F)c1Nc1nc(N)nc(C(C)(F)CCl)n1 (stereo not drawn) [Example 84]
herbicidal activity ([1]; pre-emergence, 62 g/ha): 100%
herbicidal activity ([4]; pre-emergence, 62 g/ha): 100%
herbicidal activity ([3]; pre-emergence, 62 g/ha): 100%

C#CC(C)Oc1c(F)cc(F)c(F)c1Nc1nc(N)nc(C2(F)CCCC2)n1 (stereo not drawn) [Example 105]
herbicidal activity ([1]; pre-emergence, 62,5 g/ha): 100%
herbicidal activity ([4]; pre-emergence, 62,5 g/ha): 100%
herbicidal activity ([3]; pre-emergence, 62,5 g/ha): 100%

C#CC(C)(F)c1nc(N)nc(Nc2c(F)c(F)cc(Cl)c2OC)n1 (stereo not drawn) [Example 118]
herbicidal activity ([1]; pre-emergence, 62,5 g/ha): 100%
herbicidal activity ([2]; pre-emergence, 62,5 g/ha): 100%
herbicidal activity ([3]; pre-emergence, 62,5 g/ha): 100%

COc1c(Br)cc(Br)c(F)c1Nc1nc(N)nc(C(C)(C)F)n1 [Example 8]
herbicidal activity ([1]; pre-emergence, 125 g/ha): 100%
herbicidal activity ([4]; pre-emergence, 125 g/ha): 100%
herbicidal activity ([3]; pre-emergence, 125 g/ha): 100%

C#CCOc1c(Br)cc(Br)c(F)c1Nc1nc(N)nc(C(C)(C)F)n1 [Example 65]
herbicidal activity ([1]; pre-emergence, 62 g/ha): 100%
herbicidal activity ([4]; pre-emergence, 62 g/ha): 100%
herbicidal activity ([3]; pre-emergence, 62 g/ha): 100%

CCC(C)(F)c1nc(N)nc(Nc2c(F)c(F)cc(Br)c2OC)n1 (stereo not drawn) [Example 117]
herbicidal activity ([1]; pre-emergence, 62,5 g/ha): 98%
herbicidal activity ([2]; pre-emergence, 62,5 g/ha): 100%
herbicidal activity ([3]; pre-emergence, 62,5 g/ha): 100%

CC#CCOc1c(Br)cc(F)c(F)c1Nc1nc(N)nc(C2(F)CC2)n1 [Example 56]
herbicidal activity ([1]; pre-emergence, 62,5 g/ha): 90%
herbicidal activity ([4]; pre-emergence, 62,5 g/ha): 90%
herbicidal activity ([3]; pre-emergence, 62,5 g/ha): 100%

COc1c(Cl)cc(F)c(F)c1Nc1nc(N)nc(C(C)(F)CBr)n1 (stereo not drawn) [Example 114]
herbicidal activity ([1]; pre-emergence, 62,5 g/ha): 100%
herbicidal activity ([2]; pre-emergence, 62,5 g/ha): 100%
herbicidal activity ([3]; pre-emergence, 62,5 g/ha): 100%

CC#CCOc1c(Br)cc(Br)c(F)c1Nc1nc(N)nc(C(C)(C)F)n1 [Example 64]
herbicidal activity ([1]; pre-emergence, 62 g/ha): 100%
herbicidal activity ([4]; pre-emergence, 62 g/ha): 100%
herbicidal activity ([3]; pre-emergence, 62 g/ha): 100%

C=CC(C)(F)c1nc(N)nc(Nc2c(F)c(F)cc(Br)c2OC)n1 (stereo not drawn) [Example 121]
herbicidal activity ([1]; pre-emergence, 62,5 g/ha): 100%
herbicidal activity ([2]; pre-emergence, 62,5 g/ha): 100%
herbicidal activity ([3]; pre-emergence, 62,5 g/ha): 100%

COc1c(Cl)cc(F)c(F)c1Nc1nc(N)nc(C2(F)CCCCC2)n1 [Example 10]
herbicidal activity ([1]; pre-emergence, 250 g/ha): 100%
herbicidal activity ([2]; pre-emergence, 250 g/ha): 100%
herbicidal activity ([3]; pre-emergence, 250 g/ha): 100%

CC(C)(F)c1nc(N)nc(Nc2c(F)c(F)cc(Br)c2OCF)n1 [Example 106]
herbicidal activity ([1]; pre-emergence, 62,5 g/ha): 100%
herbicidal activity ([4]; pre-emergence, 62,5 g/ha): 100%
herbicidal activity ([3]; pre-emergence, 62,5 g/ha): 100%

COc1c(Br)cc(Br)c(F)c1Nc1nc(N)nc(C2(F)CCCCC2)n1 [Example 9]
herbicidal activity ([1]; pre-emergence, 250 g/ha): 90%
herbicidal activity ([2]; pre-emergence, 250 g/ha): 100%
herbicidal activity ([3]; pre-emergence, 250 g/ha): 95%

COc1c(Br)cc(F)c(F)c1Nc1nc(N)nc(C(C)(C)F)n1 [Example 6, N4-(5-Bromo-2,3-difluoro-6-methoxy-phenyl)-6-(1-fluoro-1-methyl-ethyl)-1,3,5-triazine-2,4-diamine]
herbicidal activity ([1]; pre-emergence, 125 g/ha): 100%
herbicidal activity ([4]; pre-emergence, 125 g/ha): 100%
herbicidal activity ([3]; pre-emergence, 125 g/ha): 100%

C=CC(C)(F)c1nc(N)nc(Nc2c(F)c(F)cc(Cl)c2OC)n1 (stereo not drawn) [Example 122]
herbicidal activity ([1]; pre-emergence, 62,5 g/ha): 100%
herbicidal activity ([2]; pre-emergence, 62,5 g/ha): 100%
herbicidal activity ([3]; pre-emergence, 62,5 g/ha): 100%

Nc1nc(Nc2c(F)c(F)cc(F)c2OCF)nc(C2(F)CCCC2)n1 [Example 107]
herbicidal activity ([1]; pre-emergence, 62,5 g/ha): 100%
herbicidal activity ([4]; pre-emergence, 62,5 g/ha): 100%
herbicidal activity ([3]; pre-emergence, 62,5 g/ha): 100%

C#CCOc1c(Br)cc(Cl)c(F)c1Nc1nc(N)nc(C(C)(C)F)n1 [Example 77]
herbicidal activity ([2]; pre-emergence, 62 g/ha): 100%
herbicidal activity ([4]; pre-emergence, 62 g/ha): 100%
herbicidal activity ([3]; pre-emergence, 62 g/ha): 100%

COc1c(Cl)c(F)c(F)c(F)c1Nc1nc(N)nc(C(C)(C)C)n1 [Example 162]
herbicidal activity ([1]; pre-emergence, 62,5 g/ha): 95%
herbicidal activity ([4]; pre-emergence, 62,5 g/ha): 95%
herbicidal activity ([3]; pre-emergence, 62,5 g/ha): 100%

CC#CCOc1c(C)cc(Br)c(F)c1Nc1nc(N)nc(C(C)(C)F)n1 [Example 68]
herbicidal activity ([2]; pre-emergence, 62 g/ha): 100%
herbicidal activity ([4]; pre-emergence, 62 g/ha): 100%
herbicidal activity ([3]; pre-emergence, 62 g/ha): 100%

CC#CCOc1c(Cl)cc(F)c(F)c1Nc1nc(N)nc(C2(F)CCCC2)n1 [Example 58]
herbicidal activity ([1]; pre-emergence, 62,5 g/ha): 100%
herbicidal activity ([4]; pre-emergence, 62,5 g/ha): 100%
herbicidal activity ([3]; pre-emergence, 62,5 g/ha): 100%

COCOc1c(Br)ccc(F)c1Nc1nc(N)nc(C(C)(C)F)n1 [Example 26]
herbicidal activity ([2]; pre-emergence, 250 g/ha): 100%
herbicidal activity ([4]; pre-emergence, 250 g/ha): 100%
herbicidal activity ([3]; pre-emergence, 250 g/ha): 100%

CCOc1c(Br)ccc(F)c1Nc1nc(N)nc(C(C)(C)F)n1 [Example 45]
herbicidal activity ([2]; pre-emergence, 62,5 g/ha): 100%
herbicidal activity ([4]; pre-emergence, 62,5 g/ha): 100%
herbicidal activity ([3]; pre-emergence, 62,5 g/ha): 100%

CC#CCOc1c(Cl)cc(F)c(F)c1Nc1nc(N)nc(C(F)C2CC2)n1 (stereo not drawn) [Example 94]
herbicidal activity ([2]; pre-emergence, 62 g/ha): 100%
herbicidal activity ([4]; pre-emergence, 62 g/ha): 100%
herbicidal activity ([3]; pre-emergence, 62 g/ha): 100%

C#CCOc1c(Cl)cc(F)c(F)c1Nc1nc(N)nc(C(C)(C)F)n1 [Example 28]
herbicidal activity ([2]; pre-emergence, 62,5 g/ha): 100%
herbicidal activity ([4]; pre-emergence, 62,5 g/ha): 100%
herbicidal activity ([3]; pre-emergence, 62,5 g/ha): 100%

CC#CC(C)Oc1c(Br)cc(F)c(F)c1Nc1nc(N)nc(C(C)(C)F)n1 (stereo not drawn) [Example 95]
herbicidal activity ([2]; pre-emergence, 62 g/ha): 100%
herbicidal activity ([4]; pre-emergence, 62 g/ha): 100%
herbicidal activity ([3]; pre-emergence, 62 g/ha): 100%

COc1c(Br)cc(F)c(F)c1Nc1nc(N)nc(C2(F)CCCC2)n1 [Example 81]
herbicidal activity ([1]; pre-emergence, 62 g/ha): 100%
herbicidal activity ([4]; pre-emergence, 62 g/ha): 100%
herbicidal activity ([3]; pre-emergence, 62 g/ha): 100%

C#CCOc1c(Cl)cc(F)c(F)c1Nc1nc(N)nc(C2(F)CCCCC2)n1 [Example 112]
herbicidal activity ([2]; pre-emergence, 62,5 g/ha): 95%
herbicidal activity ([4]; pre-emergence, 62,5 g/ha): 95%
herbicidal activity ([3]; pre-emergence, 62,5 g/ha): 90%

CC(C)(F)c1nc(N)nc(Nc2c(F)c(F)cc(Br)c2OCC#CC2CC2)n1 [Example 29]
herbicidal activity ([1]; pre-emergence, 31 g/ha): 100%
herbicidal activity ([2]; pre-emergence, 31 g/ha): 100%
herbicidal activity ([3]; pre-emergence, 31 g/ha): 100%

CC#CCOc1c(Br)cc(F)c(F)c1Nc1nc(N)nc(C(C)(C)OC)n1 [Example 85]
herbicidal activity ([1]; pre-emergence, 62 g/ha): 85%
herbicidal activity ([4]; pre-emergence, 62 g/ha): 100%
herbicidal activity ([3]; pre-emergence, 62 g/ha): 98%

C#CC(C)Oc1c(Cl)cc(F)c(F)c1Nc1nc(N)nc(C(C)(C)F)n1 (stereo not drawn) [Example 99]
herbicidal activity ([1]; pre-emergence, 62 g/ha): 100%
herbicidal activity ([2]; pre-emergence, 62 g/ha): 100%
herbicidal activity ([3]; pre-emergence, 62 g/ha): 100%

CC#CCOc1c(Cl)cc(F)c(F)c1Nc1nc(N)nc(C2(F)CC2)n1 [Example 57]
herbicidal activity ([1]; pre-emergence, 31 g/ha): 98%
herbicidal activity ([4]; pre-emergence, 31 g/ha): 100%
herbicidal activity ([3]; pre-emergence, 31 g/ha): 100%

COc1c(Br)cc(F)c(F)c1Nc1nc(N)nc(C(C)(F)F)n1 [Example 50]
herbicidal activity ([1]; pre-emergence, 31 g/ha): 80%
herbicidal activity ([2]; pre-emergence, 31 g/ha): 100%
herbicidal activity ([3]; pre-emergence, 31 g/ha): 100%

COc1c(Cl)cc(Cl)c(F)c1Nc1nc(N)nc(C2(F)CC2)n1 [Example 72]
herbicidal activity ([2]; pre-emergence, 62 g/ha): 100%
herbicidal activity ([4]; pre-emergence, 62 g/ha): 100%
herbicidal activity ([3]; pre-emergence, 62 g/ha): 100%
